Values quoted from earlier work, collected in patent publication US12174205B2, “Phosphatidylethanolamine-specific probes” (Northwestern University, priority 2014, dated 2024).

Conditions: at micromolar concentration: membrane distortion, PE translocation

For cinnamycin, the cytotoxicity is listed as “exhibit cytotoxicity”.
